According to US20150272952A1, “Combination” (GLAXOSMITHKLINE LLC, priority 2012, published 2015):
Like-named read-outs stand apart in the source and are kept apart here.

How the values were obtained:
[1] = test system: SK-BR-3; assay: Cell growth inhibition assay (Cell Titer Glo), SK-BR-3; type: cell-based; conditions: Homo sapiens
Method: (§1) Human tumor cell lines from breast, BT474, BT474-J4, JIMT-1, MDA-MB-361, SK-BR-3, HCC1419, UACC893 and HCC202 in RPMI 1640 containing 10% FBS media; SK-BR-3-W13 and BT474-J4 in RPMI 1640 containing 10% FBS and 1 μM Compound A (in this assay, Compound A, was used in the form of the ditosylate monohydrate salt) media were kept in a humidified incubator at 37° C. in 95% air and 5% CO2 JIMT-1 is a line derived from a patient clinically resistant to trastuzumab (Herceptin®). SK-BR-3-W13 is a single cell clone isolated by a cloning cylinder after a single treatment of SK-BR-3 cells with 0.5 μM Compound A. BT474-J4 is a single cell clone derived from BT474 cells that were selected to grow in Compound A to a concentration of 3 μM.
(§2) All cells were cultured without Compound A for a minimum of 72 hours prior to cell plating. Cells were assayed in a 96-well tissue culture plate (NUNC 136102) of RPMI containing 10% FBS at 2,000 cells/well. Approximately 24 hours after plating, cells were exposed to ten, two-fold or three-fold serial dilutions of Compound A or the combination of the two agents at a constant molar to molar ratio of 10:1 Compound A to Compound B (in this assay, Compound B refers to N-{(1S)-2-amino-1-[(3,4-difluorophenyl)methyl]ethyl}-5-chloro-4-(4-chloro-1-methyl-1H-pyrazol-5-yl)-2-furancarboxamide and was used as the free or unsalted compound) in RPMI media containing 10% FBS. Cells were incubated in the presence of compounds for 3 days. ATP levels were determined by adding Cell Titer Glo® (Promega) according to the manufacturer's protocol. Briefly, Cell Titer Glo® was added each plate, incubated for 20 minutes then luminescent signal was read on the SpectraMax L plate reader with a 0.5 sec integration time.
(§3) Inhibition of cell growth was estimated after treatment with Compound A or the combination of Compound A and Compound B for three days and comparing the signal to cells treated with vehicle (DMSO). Cell growth was calculated relative to vehicle (DMSO) treated control wells. Concentration of compound that inhibits 50% of control cell growth (IC50) was interpolated using nonlinear regression with the equation, y=(A+(B−A)/(1+(C/x)̂D)))), where A is the minimum response (ymin), B is the maximum response (ymax), C is the inflection point of the curve (EC50) and D is the Hill coefficient. […]
(§4) In general, a CI value <0.9, between 0.9 and 1.1, or >1.1 indicates synergy, additivity and antagonism, respectively. In general, the smaller the CI number, the greater is the strength of synergy. […]

[2] = test system: BT474; assay: Cell growth inhibition assay (Cell Titer Glo), BT474; type: cell-based; conditions: Homo sapiens
Method: as §1, §2, §3, §4

[3] = test system: UACC893; assay: Cell growth inhibition assay (Cell Titer Glo), UACC893; type: cell-based, Human; conditions: for IC50: Homo sapiens, UACC-893, 72 h, UACC893, PIK3CA H1047R, 3 days, single agent; for sensitivity of the line to single agent: UACC893, H1047R PIK3CA mutation
Method: as §1, §2, §3, §4

[4] = test system: BT474-J4; assay: Cell growth inhibition assay (Cell Titer Glo), BT474-J4; type: cell-based, Human; conditions: for IC50: Homo sapiens, 72 h, BT474-J4 (resistant to Compound A and trastuzumab), PIK3CA K111N, 3 days, single agent
Method: as §1, §2
Inhibition of cell growth was estimated after treatment with Compound A or the combination of Compound A and Compound B for three days and comparing the signal to cells treated with vehicle (DMSO). Cell growth was calculated relative to vehicle (DMSO) treated control wells. […]

[5] = test system: HCC202; assay: Cell growth inhibition assay (Cell Titer Glo), HCC202; type: cell-based, Human; conditions: for sensitivity of the line to single agent: HCC202, E545K PIK3CA mutation; for IC50: Homo sapiens, 72 h, HCC202, PIK3CA E545K, 3 days, single agent
Method: as §1, §2, §3, §4

[6] = test system: KPL4; assay: Cell growth inhibition assay (Cell Titer Glo), KPL4; type: cell-based, Human; conditions: for IC50: Homo sapiens, 72 h, KPL4, PIK3CA H1047R, 3 days, single agent; for sensitivity of the line to single agent: KPL-4, H1047R PIK3CA mutation
[7] = test system: JIMT1; assay: Cell growth inhibition assay (Cell Titer Glo), JIMT1; type: cell-based; conditions: Homo sapiens
Method: as §1, §2, §3, §4

[8] = test system: MDA-MB-361; assay: Cell growth inhibition assay (Cell Titer Glo), MDA-MB-361; type: cell-based, Human; conditions: for IC50: Homo sapiens, 72 h, MDA-MB-361, PIK3CA E545K, 3 days, single agent; for sensitivity of the line to single agent: MDA-MB-361, E545K PIK3CA mutation
Method: as §1, §2, §3, §4

[9] = test system: SK-BR3-W13; assay: Cell growth inhibition assay (Cell Titer Glo), SK-BR3-W13; type: cell-based; conditions: Homo sapiens
Method: as §1, §2, §3, §4

[10] = test system: HCC1419; assay: Cell growth inhibition assay (Cell Titer Glo), HCC1419; type: cell-based; conditions: Homo sapiens
Method: as §1, §2, §3, §4

[11] = 72 h, SK-BR-3, PIK3CA WT, 3 days, single agent, read-out: Single agent (IC50, μm)
[12] = SK-BR-3, single agent, bound stated, read-out: IC50
[13] = BT-474, 72 h, BT474, PIK3CA K111N, 3 days, single agent, read-out: Single agent (IC50, μm)
[14] = BT-474, BT474, single agent, bound stated, read-out: IC50
[15] = JIMT-1, 72 h, JIMT1 (resistant to Compound A and trastuzumab), PIK3CA C420R, 3 days, single agent, read-out: Single agent (IC50, μm)
[16] = JIMT-1, JIMT1, single agent, bound stated, read-out: IC50
[17] = 72 h, SK-BR3-W13 (resistant to Compound A and trastuzumab), 3 days, single agent, read-out: Single agent (IC50, μm)
[18] = SK-BR-3-W13, single agent, bound stated, read-out: IC50
[19] = 72 h, HCC1419, PIK3CA WT, 3 days, single agent, read-out: Single agent (IC50, μm)
[20] = HCC1419, single agent, bound stated, read-out: IC50

| IC50 [1, 11] [nM] | IC50 [1, 12] [nM] | IC50 [2, 13] [nM] | IC50 [2, 14] [nM] | IC50 [4] [nM] | IC50 [5] [nM] | IC50 [8] [nM] | IC50 [9, 17] [nM] | IC50 [9, 18] [nM] | IC50 [10, 19] [nM] | IC50 [10, 20] [nM] | Structure (SMILES) | IC50 [3] [nM] | sensitivity of the line to single agent [3] | sensitivity of the line to single agent [5] | IC50 [6] [nM] | sensitivity of the line to single agent [6] | IC50 [7, 15] [nM] | IC50 [7, 16] [nM] | sensitivity of the line to single agent [8] | sensitivity of the line to cell growth inhibition ([4]; BT474-J4, single agent) |
| --- | --- | --- | --- | --- | --- | --- | --- | --- | --- | --- | --- | --- | --- | --- | --- | --- | --- | --- | --- | --- |
| 196 ± 70 | < 200 | 171 ± 34 | < 200 | 5180 ± 2200 | 2408 ± 22 | > 10000 | 5600 ± 1050 | > 5000 | 84 ± 34 | < 200 | CS(=O)(=O)CCNCc1ccc(-c2ccc3ncnc(Nc4ccc(OCc5cccc(F)c5)c(Cl)c4)c3c2)o1 [Compound A, N-{3-Chloro-4-[(3-fluorobenzyl)oxy]phenyl}-6-[5-({[2-(methanesulphonyl)ethyl]amino}methyl)-2-furyl]-4-quinazolinamine, reference compound] | 492 ± 498 | sensitive | less sensitive | 430 ± 159 | sensitive | 7780 ± 1270 | > 5000 | less sensitive |  |
| > 1000 | > 500 | > 1000 | > 500 | 142 ± 47 | 919 ± 356 | 151 ± 22 | > 1000 | > 1000 | 573 ± 154 | > 500 | Cn1ncc(Cl)c1-c1cc(C(=O)N[C@H](CN)Cc2ccc(F)c(F)c2)oc1Cl [Compound B, N-{(1S)-2-amino-1-[(3,4-difluorophenyl)methyl]ethyl}-5-chloro-4-(4-chloro-1-methyl-1H-pyrazol-5-yl)-2-furancarboxamide] | 30 ± 27 | sensitive | less sensitive | 19 ± 4 | sensitive | > 1000 | > 1000 | less sensitive | sensitive |
